Our source for the IC50 and Concentration values is ChEMBL document CHEMBL1133029, “Synthesis of hybrid distamycin-cysteine labeled with 99mTc: a model for a novel class of cancer imaging agents” (Bioorg Med Chem Lett, 2000).

For one assay, the system named is L1210. Briefly: Inhibitory activity against L1210 murine leukemic cell line after 48 hr of exposure to compound. Type of assay: functional, cell-based. Conditions: Mus musculus, L1210, 48 h.
The test system of the next assay is K562. Briefly: Concentration required for inhibitory activity was evaluated against human leukemic K562 cell line. The class given is functional, cell-based.

SMILES strings stand for the structures.

For `Cn1cc(NC(=O)c2cc(NC(=O)c3cc(NC=O)cn3C)cn2C)cc1C(=O)NCCC(=N)N`, half-maximal inhibition with L1210 (IC50) required 9.64 µM. For the same compound, the Concentration in the assay on K562 worked out at 12 µM.
The like results for `Cn1cc(NC(=O)c2cc(NC(=O)c3cc(NC(=O)[C@@H](N)CS)cn3C)cn2C)cc1C(=O)NCCC(=N)N` were, in that order, 7.96 µM and 10 µM.
